Experimental data: patent publication US5190938A, “Derivatives of 2-hydroxythiophene and -furan fused with a nitrogen-containing ring and their application in therapy” (Sanofi, priority 1989, dated 1993)
Counter-ions that a name gives are not always drawn. Like-named read-outs stand apart in the source and are kept apart here.

Assays:
[1] = biological target: porcine pancreatic elastase (Sus scrofa, UniProt P00772); assay: In vitro inhibition of elastase enzymatic activity (hydrolysis of Suc-Ala-Ala-Pro-LeupNA), Table I; assay type: biochemical; conditions: 25° C., pH 8.8, concentration in the final solution
Protocol: (§1) a) In vitro inhibition of elastase enzymatic activity.
(§2) The variation of the rate of hydrolysis of a substrate specific of elastases was studied in the presence and absence of the test compound according to a conventional technique. The experiments were performed with porcine pancreatic elastase, and human neutrophil elastase extracted from purulent sputum; the enzyme substrate was a chromogenic tetrapeptide, N-succinyl-L-alanyl-L-alanyl-[…]-L-leucyl-p-nitroanilide, designated Suc-Ala-Ala-Pro-LeupNA, which, on hydrolysis, liberates p-nitroaniline, the appearance of which in the medium is followed in a spectrophotometer; alpha1 -antitrypsin was used as a standard inhibitor. The experiments were performed at 25° C., the spectrophotometric measurement being made at 410 nm.
(§3) The solution of substrate was prepared by dissolving 5.8 mg of anilide in 20 ml of buffer solution containing 24.22 g/l of Tris-HCl with 754 mg/l of CaCl2, adjusted to pH 8.8.
(§4) The solution of enzyme in the same buffer was at a concentration of 0.1 g/l, while the solutions of test compound in the same buffer were at concentrations of between 0.1 mM and 0.01 μM.
(§5) 200 μl of solution of substrate, 75 μl of buffer solution and 200 μl of solution of the test compound, or of buffer solution in the case of the controls, were mixed in tubes. After 20 minutes at 25° C., the tube was placed in the recording spectrophotometer and 25 μl of the solution of enzyme were added to this medium; the change in the optical density ΔOD was recorded for 30 seconds.
(§6) The percentage inhibition is defined as the difference between the change in OD for the control sample and that for the test sample, divided by the change for the control and multiplied by 100. [formula]

human leucocyte elastase = biological target: T1, human leucocyte elastase (Homo sapiens, UniProt P08246); assay: In vitro inhibition of elastase enzymatic activity (hydrolysis of Suc-Ala-Ala-Pro-LeupNA), Table II; assay type: biochemical; conditions: human leucocyte (neutrophil) elastase from purulent sputum; 25° C.; pH 8.8; concentration in the final solution
T1 construct: human neutrophil elastase extracted from purulent sputum; from tissue; host or cells: purulent sputum
T1 sequence (P08246 30-247 limits assumed): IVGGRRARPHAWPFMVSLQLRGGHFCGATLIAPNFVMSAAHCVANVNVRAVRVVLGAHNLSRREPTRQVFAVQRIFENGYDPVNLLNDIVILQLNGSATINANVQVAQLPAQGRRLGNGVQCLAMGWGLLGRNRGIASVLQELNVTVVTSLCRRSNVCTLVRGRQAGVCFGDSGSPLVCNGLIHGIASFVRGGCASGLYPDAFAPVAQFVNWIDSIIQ
Protocol: as §1, §2, §3, §4, §5, §6

platelet aggregation = assay: Platelet aggregation-inhibitory activity in rats (blood taken from treated animals, ADP or collagen added); assay type: in vivo; conditions: Rattus norvegicus, po, orally
From the text: b) Platelet aggregation-inhibitory activity in rats.

[2] = ADP, read-out: percentage inhibition of aggregation, ADP
[3] = collagen, read-out: percentage inhibition of aggregation, collagen

Sequence of porcine pancreatic elastase (P00772 27-266): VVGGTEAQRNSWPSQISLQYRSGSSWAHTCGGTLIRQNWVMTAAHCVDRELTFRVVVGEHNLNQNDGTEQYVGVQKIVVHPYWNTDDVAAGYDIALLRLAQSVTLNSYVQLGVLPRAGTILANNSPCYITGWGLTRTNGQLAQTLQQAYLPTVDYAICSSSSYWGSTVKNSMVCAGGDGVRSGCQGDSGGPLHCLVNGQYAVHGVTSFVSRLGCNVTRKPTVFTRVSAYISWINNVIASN

Structure (SMILES) | IC50 [1] [µM] | IC50 (human leucocyte elastase) [µM] | inhibition at 100 mg/kg (platelet aggregation; [2]) [%] | inhibition at 100 mg/kg (platelet aggregation; [3]) [%]
CC(c1ccccc1)N1CCc2sc(OC(=O)C(C)(C)C)cc2C1 (racemic) [SR 27319] | 4.5 | 3.4 | – | –
CCCC(=O)Oc1cc2c(s1)CCN(Cc1ccccc1Cl)C2 [PCR 4094] | 2 | 3.5 | – | –
CC(C)(C)C(=O)Oc1cc2c(s1)CCN(Cc1ccccc1Cl)C2 [SR 26766, 5-(2-chlorobenzyl)-4,5,6,7-tetrahydrothieno[3,2-c]pyridyl-2 t-butyrate] | – | – | 61 | 62
CCCC(=O)Oc1cc2c(s1)CCN(Cc1ccc(Cl)cc1)C2 [SR 26767] | 4.8 | 3.4 | – | –
CC(C)C(=O)Oc1cc2c(s1)CCN(Cc1ccc(Cl)cc1)C2 [SR 26769] | 7 | 30 | – | –
CC(C)C(=O)Oc1cc2c(s1)CCN(Cc1ccccc1Cl)C2 [SR 26772] | 5.8 | 2.6 | – | –
CC(C)(C)C(=O)Oc1cc2c(s1)CCN(Cc1ccccc1)C2 [SR 26827] | 9 | 3.4 | 48 | 21
CC(C)C(=O)Oc1cc2c(s1)CCN(Cc1ccccc1)C2 [SR 26829] | 8 | 24 | – | –
CC(C)(C)C(=O)Oc1cc2c(s1)CC[N+]([O-])(Cc1ccccc1Cl)C2 (stereo not shown) [SR 26831] | 5 | 2.5 | – | –
CCCC(=O)Oc1cc2c(s1)CC[N+]([O-])(Cc1ccccc1Cl)C2 (stereo not shown) [SR 26832] | 7 | 5.6 | – | –
CC(C)C(=O)Oc1cc2c(s1)CC[N+]([O-])(Cc1ccccc1Cl)C2 (stereo not shown) [SR 26833] | 6 | 3.6 | – | –
CC(C)(C)C(=O)Oc1cc2c(s1)CCNC2 [SR 26842, 4,5,6,7,-tetrahydrothieno[3,2-c]pyrid-2-yl t-butyrate] | 10 | 3.2 | – | –
CC(C)C(=O)Oc1cc2c(s1)CCNC2 [SR 26861, 4,5,6,7-Tetrahydrothieno[3,2-c]pyrid-2-yl isobutyrate, hydrochloride] | 6.4 | 2.6 | – | –
CC(C)C(=O)Oc1cc2c(s1)CN(Cc1ccccc1Cl)CC2 [SR 26862] | 4 | – | – | –
COC(=O)C(c1ccccc1Cl)N1CCc2sc(OC(=O)C(C)C)cc2C1 (stereo not shown) [SR 26886] | 2.9 | 30 | – | –
CCOC(=O)Oc1cc2c(s1)CC[N+]([O-])(Cc1ccccc1Cl)C2 (stereo not shown) [SR 26894] | 24 | – | – | –

Structure (SMILES) | IC50 [1] [µM] | IC50 (human leucocyte elastase) [µM] | inhibition at 100 mg/kg (platelet aggregation; [2]) [%] | inhibition at 100 mg/kg (platelet aggregation; [3]) [%]
CC(=O)Oc1cc2c(s1)CCN(C(C(=O)N1CCCC1)c1ccccc1Cl)C2 (stereo not shown) [SR 26913] | 32 | – | – | –
CC(=O)Oc1cc2c(s1)CC[N+]([O-])(C(C(=O)N1CCCC1)c1ccccc1Cl)C2 (stereo not shown) [SR 26914] | 25 | – | – | –
CC(C)(C)C(=O)Oc1cc2c(o1)CCN(Cc1ccccc1Cl)C2 [SR 26938, 5-(2-chlorobenzyl)-4,5,6,7-tetrahydrofuro-[3,2-c]pyrid-2yl t-butyrate] | 3.6 | 3.1 | – | –
CC(C)(C)C(=O)Oc1cc2c(s1)CC[N+]([O-])(Cc1ccc(Cl)cc1)C2 (stereo not shown) [SR 26977] | 2.5 | 1.8 | – | –
CN1CCc2sc(OC(=O)C(C)(C)C)cc2C1 [SR 26984, 5-methyl-4,5,6,7-tetrahydrothieno[3,2-c]pyrid-2-yl t-butyrate] | 3.6 | 2.6 | – | –
CC(C)(C)C(=O)Oc1cc2c(s1)CC[N+]([O-])(Cc1ccccc1)C2 (stereo not shown) [SR 26986] | 2.2 | 2.3 | – | –
CC(C)(C)C(=O)Oc1cc2c(o1)CC[N+]([O-])(Cc1ccccc1Cl)C2 (stereo not shown) [SR 26993] | 1.7 | 3.1 | – | –
CC(C)(C)C(=O)Oc1cc2c(s1)C[N+]([O-])(Cc1ccccc1Cl)CC2 (stereo not shown) [SR 26998] | 2.2 | 2.2 | – | –
CC(C)(C)C(=O)Oc1cc2c(s1)CC[N+](C)([O-])C2 (stereo not shown) [SR 27165] | 10 | – | – | –
CC(C)(C)C(=O)Oc1cc2c(s1)CC[N+](C)(Cc1ccccc1Cl)C2 (stereo not shown) [SR 27168] | 1.6 | – | – | –
COc1ccc(CN2CCc3sc(OC(=O)C(C)(C)C)cc3C2)cc1 [SR 27261] | 4.5 | 3.2 | – | –
COc1ccc(C[N+]2([O-])CCc3sc(OC(=O)C(C)(C)C)cc3C2)cc1 (stereo not shown) [SR 27262] | 1 | 2.6 | – | –
CCCN1CCc2sc(OC(=O)C(C)(C)C)cc2C1 [SR 27318, 5-propyl-4,5,6,7-tetrahyirothieno[3,2-c]pyrid-2-yl t-butyrate] | 10 | 3 | – | –
CCC[N+]1([O-])CCc2sc(OC(=O)C(C)(C)C)cc2C1 (stereo not shown) [SR 27325] | 15 | 0.7 | – | –
CC(c1ccccc1)[N+]1([O-])CCc2sc(OC(=O)C(C)(C)C)cc2C1 (stereo not shown) [SR 27354] | 10 | 2.6 | – | –
